According to US20170071976A1, “PHARMACEUTICAL SOLUTION HAVING ANTI-TUMOR EFFECT-ENHANCING AND TOXICITY-REDUCING EFFECT, AND PHARMACEUTICAL COMPOSITION COMPRISING SAME” (priority 2014, published 2017):
Read-outs that look alike come from different tables or passages of the source. Marks after values point to notes of the source that are not given here.

Key:
[1] = test system: xenograft tumors from human breast cancer MCF-7 cells; test: MCF-7 xenograft in nude mice, intravenous deuterium oxide in combination with gemcitabine; assay type: in vivo, BALB/c nude mice; settings: Paclitaxel 8 mg/kg × 11, tail vein
Experimental: Ltd. Cell lines: human breast cancer MCF-7 cells were provided by NANJING […] BIOTECH. CO., LTD. […] Bone marrow nucleated cells were isolated by a routine method, DNA was extracted from the cells, the OD value was measured in a UV-260 spectrometer as a representative of the DNA content, and inhibition of DNA synthesis by the test samples was observed. The test used 7 groups in total, with 8 animals per group. […] Statistics: the same as Example 21.

[2] = test system: xenograft tumors from human colon cancer HCT-116 cells; test: HCT-116 xenograft in nude mice, intravenous deuterium oxide in combination with 5-fluorouracil; assay type: in vivo, BALB/c nude mice
Experimental: Ltd. Cell lines: human colon cancer cells HCT-116 were provided by NANJING […] BIOTECH. CO., LTD. […] Bone marrow nucleated cells were isolated by a routine method, DNA was extracted from the cells, the OD value was measured in a UV-260 spectrometer as a representative of the DNA content, and inhibition of DNA synthesis by the test samples was observed. The test used 7 groups in total, with 8 animals per group. […] Tumor volume (TV) was calculated by the following equation: […] From the measurements, relative tumor volume (RTV) was calculated by the following equation: RTV=Vt/V0 Relative tumor growth ratio T/C (%) was calculated by the following equation: Criteria of efficacy evaluation: […] T/C %≦40% and statistically P<0.05, efficacious. Inhibition of tumor growth (%) was calculated by the following equation: Criteria of efficacy evaluation: […] The mean value was expressed in X±SD. Inter-group analysis was statistically performed with t test. The results were statistically analyzed using SPSS (Statistical Package for the Social Science) 17.0.

[3] = test system: xenograft tumors from human ovarian cancer SKOV3 cells; test: SKOV3 xenograft in nude mice, intravenous deuterium oxide in combination with paclitaxel; assay type: in vivo, BALB/c nude mice; settings: Paclitaxel 8 mg/kg × 11, tail vein
From the text: 3. […] 4. Statistics: the same as Example 21.

[4] = test system: xenograft tumors from human lung cancer A549 cells; test: A549 xenograft in nude mice, intravenous deuterium oxide in combination with gemcitabine; settings: Paclitaxel 8 mg/kg × 11, tail vein; for Tumor weight: control 2.92 ± 0.27; for Inhibition (%): tumor weight
Experimental: (§1) Animal: 6 to 7 week-aged female BALB/c nude mice, each weighing 18 to 20 g, provided by Shanghai SLAC Laboratory Animal Co. Ltd.
Test drugs: gemcitabine (GEM) and the sodium chloride deuterium oxide solution prepared in Example 1.
(§2) Tumor cells were resuscitated and inoculated, and sterile sodium chloride physiological solution was added thereto to make a cell suspension which was subcutaneously inoculated into the upper right axillary fossa of animals. 5×10^6 tumor cells were inoculated into each animal.
The diameter of xenograft tumors in the nude mice was measured with a vernier caliper, and 10 days after inoculation, when tumors grew to 100 to 110 cm^3, the animals were randomized with 8 mice per group. Meanwhile drugs were administered by injection into tail vein, once every three days, for 21 successive days. By measuring the tumor diameter, the anti-tumor efficacy of test samples was dynamically observed. Meanwhile the body weight of animals was also recorded to observe the toxicity of the test samples. 21 days after administration, the nude mice were sacrificed, and tumors were harvested by surgery, weighed and photographed.
6) Test group 2: gemcitabine (10 mg/kg) diluted in the sodium chloride deuterium oxide solution (10 ml/kg). 7) Test group 3: gemcitabine (10 ml/kg) diluted in the sodium chloride deuterium oxide solution (20 ml/kg).

[5] = test system: xenograft tumors from human bladder cancer 5637 cells; settings: Thiotepa 0.2 mg/kg × 11, tail vein; for Inhibition (%): tumor weight
From the text: Inhibition of growth of xenograft tumors from human bladder cancer 5637 cells in nude mice by intravenous injection of deuterium oxide in combination with thiotepa
as §1
Cell lines: human bladder cancer 5637 cells were provided by NANJING KEYGEN BIOTECH. CO., LTD.
Test drugs: thiotepa and the sodium chloride deuterium oxide solution, prepared in Example 1.
as §2
The diameter of xenograft tumors in the nude mice was measured with a vernier caliper, and 10 days after inoculation, when tumors grew to 100 to 110 cm^3, the animals were randomized. Meanwhile drugs were administered by injection into tail vein, once every three days, for 21 successive days. The body weight of animals was also recorded to observe the toxicity of the test samples. 21 days after administration, the nude mice were sacrificed, and tumors were harvested by surgery, and weighed.
The test used 5 groups in total, with 5 animals per group.
1) Control group: sodium chloride physiological solution, 10 ml/kg; 2) Thiotepa positive control group: thiotepa (0.2 mg/kg) diluted in sodium chloride physiological solution; 3) Test group 1: thiotepa (0.2 mg/kg) diluted in the sodium chloride deuterium oxide solution (1 ml/kg); 4) Test group 2: thiotepa (0.2 mg/kg) diluted in the sodium chloride deuterium oxide solution (10 ml/kg); 5) Test group 3: thiotepa (0.2 mg/kg) diluted in the sodium chloride deuterium oxide solution (25 ml/kg).

[6] = test system: liver cancer H22 ascites tumor; test: Liver cancer H22 ascites tumor mice, intraperitoneal retention lavage with deuterium oxide and cisplatin (room temperature or 42±1° C.); assay type: in vivo, Kunming mice; settings: cisplatin 0.6 mg/kg + Ringer's solution
Experimental: Animal: 4 to 5 week-aged male Kunming mice, provided by Shanghai SIPPR-BK Laboratory Animal Co. Ltd. Cell lines: […] CO., LTD. […] Test drugs: cisplatin, and the Ringer's deuterium oxide solution as prepared in Example 6. Grouping and dosing: the mouse model was established 7 to 8 days after inoculation, and the mice were randomized with 18 animals/group. Cisplatin were dissolved in a 42±1° C. Ringer's deuterium oxide solution, and used to lavage the peritoneal cavity of the tumor-bearing mice. 1). Blank control group (normal Ringer's solution, 10 ml/kg, room temperature); 2). Normal chemo group (cisplatin 0.6 mg/kg+normal Ringer's solution, 10 ml/kg, room temperature); 3). […] Room temperature high-dose deuterium oxide+cisplatin group (Ringer's deuterium oxide solution, 40 ml/kg+cisplatin 0.6 mg/kg); 6). Hyperthermic low-dose deuterium oxide+cisplatin group (42±1° C. […] Hyperthermic mid-dose deuterium oxide+cisplatin group (42±1° C. […] Hyperthermic high-dose deuterium oxide+cisplatin group (42±1° C. Ringer's deuterium oxide solution, 40 ml/kg+cisplatin 0.6 mg/kg); […] The lavage was performed once another day for 5 successive times. […] 4. […] Statistics: the same as Example 18.

[7] = test system: sarcoma S180 (ascites type); test: Sarcoma S180 (ascites type) mice, 42±1° C. intraperitoneal retention lavage with deuterium oxide, oxaliplatin and mitomycin; assay type: in vivo, Kunming mice; settings: oxaliplatin 0.8 mg/kg + glucose injection 5 ml/kg
Experimental: Inhibition of sarcoma S180 (ascites type) in tumor-bearing mice by 42±1° C. hyperthermic intraperitoneal retention lavage using deuterium oxide in combination with oxaliplatin and using deuterium oxide in combination with oxaliplatin and mitomycin.
Cell lines: sarcoma S180 (ascites type) cell line was provided by NANJING KEYGEN BIOTECH. CO., LTD.
Modeling: 0.2 ml suspension of sarcoma S180 cells containing 1×10^7 cells/ml was inoculated into the peritoneal cavity of mice.
Test drugs: oxaliplatin, mitomycin, and the glucose deuterium oxide solution as prepared in Example 2.
Grouping and dosing: the mouse model was established 7 to 8 days after inoculation, and the mice were randomized with 12 animals/group.
Oxaliplatin and mitomycin were dissolved in a 42±1° C. glucose deuterium oxide solution, and used to lavage the peritoneal cavity of the tumor-bearing mice.
Blank control group (5% glucose injection, 5 ml/kg); 2). Chemo group (oxaliplatin 0.8 mg/kg+5% glucose injection, 5 ml/kg); 3). Low-dose deuterium oxide+oxaliplatin group (5% glucose deuterium oxide solution, 5 ml/kg+oxaliplatin 0.8 mg/kg); 4). Mid-dose deuterium oxide+oxaliplatin group (5% glucose deuterium oxide solution, 20 ml/kg+oxaliplatin 0.8 mg/kg); 5). High-dose deuterium oxide+oxaliplatin group (5% glucose deuterium oxide solution, 40 ml/kg+oxaliplatin 0.8 mg/kg); 6). Low-dose deuterium oxide+oxaliplatin+mitomycin group (42±1° C. 5% glucose deuterium oxide solution, 5 ml/kg+oxaliplatin 0.8 mg/kg+mitomycin 0.4 mg/kg); 7). […]
The peritoneal cavity was lavaged with the 42±1° C. glucose deuterium oxide solution in combination with the above composition, which were retained for 10 min in the peritoneal cavity after being introduced, which was repeated for 3 times. […] 24 hours after the administration of drugs was completed (on day 11), 4 mice from each group were sacrificed, the volume of ascitic fluid was measured, and bodies of the mice were dissected to observe the peritoneal organs and metastasis to lung. […]

CC(=O)O[C@H]1C(=O)[C@@]2(C)[C@H]([C@H](OC(=O)c3ccccc3)[C@]3(O)C[C@H](OC(=O)[C@H](O)[C@@H](NC(=O)c4ccccc4)c4ccccc4)C(C)=C1C3(C)C)[C@]1(OC(C)=O)CO[C@@H]1C[C@@H]2O [Paclitaxel, paclitaxel]
Body weight (g) Initial [1]: 18.3 g | Bone marrow DNA content (OD) ([1]; control 0.931 ± 0.2011): 0.881 ± 0.2502 OD | Tumor weight ([1]; control 4.07 ± 0.76): 1.59 ± 0.40 g | Body weight (g) End, given as change ([1]; control +3.3): +1.0 g | Inhibition (%) ([1]; tumor weight): 60.93%* | Body weight (g) Initial ([2]; Paclitaxel 8 mg/kg × 11, tail vein): 18.4 g | Bone marrow DNA content (OD) ([2]; Paclitaxel 8 mg/kg × 11, tail vein, control 0.950 ± 0.2711): 0.841 ± 0.3014 OD | Tumor weight ([2]; Paclitaxel 8 mg/kg × 11, tail vein, control 2.92 ± 0.27): 0.94 ± 0.25 g | Body weight (g) End, given as change ([2]; Paclitaxel 8 mg/kg × 11, tail vein, control +0.4): -1.2 g | Body weight (g) Initial ([2]; Paclitaxel 8 mg/kg × 11, tail vein, listed as paclitaxel): 18.4 ± 0.5 g | body weight at end ([2]; high-dose paclitaxel positive control): 16.8 ± 0.9 g | Inhibition (%) ([2]; tumor weight, Paclitaxel 8 mg/kg × 11, tail vein): 67.80%* | Tumor weight ([3]; control 3.22 ± 1.59): 2.07 ± 1.06 g | Body weight (g) End, given as change ([3]; control +4.0): +2.8 g | Inhibition (%) ([3]; tumor weight): 35.7% | Body weight (g) Initial [4]: 18.4 g | Tumor weight [4]: 0.94 ± 0.25 g | Tumor weight ([4]; listed as paclitaxel): 0.94 ± 0.25 g | Body weight (g) End, given as change ([4]; control +1.4): +0.9 g | Inhibition (%) [4]: 67.97* % | Inhibition (%) ([4]; listed as paclitaxel): 67.97%

S=P(N1CC1)(N1CC1)N1CC1 [Thiotepa, thiotepa]
Body weight (g) Initial [5]: 20.6 g | Tumor weight ([5]; control 2.87 ± 1.11): 1.75 ± 1.06 g | Body weight (g) End, given as change ([5]; control +3.1): +2.6 g | Inhibition (%) [5]: 39.0% | Inhibition (%) ([5]; listed as thiotepa): 39%

N.N.[Cl][Pt][Cl] [cisplatin]
T/C(%) ([6]; room temperature, i.p. lavage x 5): 137.1% | MST ([6]; room temperature, i.p. lavage x 5, control 13.2 ± 1.9): 18.1 ± 3.2 days | Ascitic fluid ([6]; day 11, RT, control 14.85 ± 2.56): 7.30 ± 2.32 mL

O=C1[O][Pt]2([NH][C@@H]3CCCC[C@H]3[NH]2)[O]C1=O [oxaliplatin]
Ascitic fluid ([7]; day 11, control 16.5 ± 4.3): 8.7 ± 1.9 mL | T/C(%) ([7]; i.p. lavage x 5): 177.6% | MST ([7]; i.p. lavage x 5, control 12.2 ± 3.0): 21.7 ± 2.8 days
